From paper PMC12472391, “Borylated Five-Membered Ring Iminosugars: Synthesis, Spectroscopic Analysis, and Biological Evaluation for Glycosidase Inhibition and Anticancer Properties for Application in Boron Neutron Capture Therapy (BNCT)—Part 1” (Pharmaceuticals, 2025)

Experiments:
[1] = test system: HT29 colon carcinoma cells; assay: Cancer screening, MTT growth inhibition; assay type: cell-based; conditions: Homo sapiens, 72-h exposure; for inhibition at 25 µM: HT-29, 25 µM, read-out: HT29 Colon Carcinoma, Percentage (%) Cell Growth Inhibition in response to 25 µM of Drug
Method: (§1) Two assays were run: the dose screen to ascertain cell growth inhibition in response to 25 µM of drug (on a blue background) and the dose response (GI50) (on a green background). For a discussion of BNCT as a radiotherapeutic modality, a rationalisation is provided here.
(§2) All test agents were prepared as stock solutions (20 mM) in dimethyl sulfoxide (DMSO) and stored at −20 °C. Cell lines used in the study included HT29, (colorectal carcinoma); U87, SJ-G2, (glioblastoma); MCF-7, (breast carcinoma); A2780 (ovarian carcinoma); H460 (lung carcinoma); A431 (skin carcinoma); Du145 (prostate carcinoma); BE2-C (neuroblastoma) and MiaPaCa-2 (pancreatic carcinoma); together with the one non-tumour derived normal breast cell line (MCF10A). All cell lines were incubated in a humidified atmosphere 5% CO2 at 37 °C. The cancer cell lines were maintained in Dulbecco’s modified Eagle’s medium (DMEM; Sigma, Australia) supplemented with foetal bovine serum (10%), sodium pyruvate (10 mM), penicillin (100 IUmL^−1), streptomycin (100 µg mL^−1), and L-glutamine (2 mM).
(§3) Growth inhibition was determined by plating cells in duplicate in medium (100 µL) at a density of 2500–4000 cells per well in 96-well plates. On day 0 (24 h after plating), when the cells are in logarithmic growth, medium (100 µL) with or without the test agent was added to each well. After a 72-h drug exposure, growth inhibitory effects were evaluated using the MTT (3-(4,5-dimethyltiazol-2-yl)-2,5-diphenyltetrazolium bromide) assay and absorbance read at 540 nm. The percentage growth inhibition was calculated at a fixed concentration of 25 µM, based on the difference between the optical density values on day 0 and those at the end of drug exposure. Each data point is the mean ± the standard error of the mean (SEM) calculated from three replicates, which were performed on separate occasions and separate cell line passages.

[2] = test system: BE2-C neuroblastoma cells; assay: Cancer screening, MTT growth inhibition; assay type: cell-based; conditions: Homo sapiens, BE(2)-C, 72-h exposure, read-out: BE2-C Neuroblastoma, Percentage (%) Cell Growth Inhibition in response to 25 µM of Drug
Method: as §1, §2, §3

[3] = test system: MIA-Pa-Ca2 pancreatic carcinoma cells; assay: Cancer screening, MTT growth inhibition; assay type: cell-based; conditions: Homo sapiens, 72-h exposure; for inhibition at 25 µM: MIA PaCa-2, 25 µM, read-out: MIA-Pa-Ca2 Pancreatic Carcinoma, Percentage (%) Cell Growth Inhibition in response to 25 µM of Drug
Method: as §1, §2, §3

U87 glioblastoma cells = assay: Cancer screening, MTT growth inhibition; assay type: cell-based; conditions: 72-h exposure, read-out: U87 Glioblastoma, Percentage (%) Cell Growth Inhibition in response to 25 µM of Drug
Method: as §1, §2, §3

SJ-G2 glioblastoma cells = assay: Cancer screening, MTT growth inhibition; assay type: cell-based; conditions: SJ-G2, 72-h exposure, read-out: SJ-G2 Glioblastoma, Percentage (%) Cell Growth Inhibition in response to 25 µM of Drug
Method: as §1, §2, §3

[4] = test system: A2780 ovarian carcinoma cells; assay: Cancer screening, MTT growth inhibition; assay type: cell-based; conditions: Homo sapiens, 72-h exposure; for inhibition at 25 µM: A2780, 25 µM, read-out: A2780 Ovarian Carcinoma, Percentage (%) Cell Growth Inhibition in response to 25 µM of Drug
Method: as §1, §2, §3

[5] = test system: MCF-7 breast carcinoma cells; assay: Cancer screening, MTT growth inhibition; assay type: cell-based; conditions: Homo sapiens, MCF7, 72-h exposure, read-out: MCF-7 Breast Carcinoma, Percentage (%) Cell Growth Inhibition in response to 25 µM of Drug
Method: as §1, §2, §3

[6] = test system: Du145 prostate carcinoma cells; assay: Cancer screening, MTT growth inhibition; assay type: cell-based; conditions: Homo sapiens, DU-145, 72-h exposure, read-out: Du145 Prostate Carcinoma, Percentage (%) Cell Growth Inhibition in response to 25 µM of Drug
Method: as §1, §2, §3

[7] = test system: A431 skin carcinoma cells; assay: Cancer screening, MTT growth inhibition; assay type: cell-based; conditions: Homo sapiens, 72-h exposure; for inhibition at 25 µM: A-431, 25 µM, read-out: A431 Skin Carcinoma, Percentage (%) Cell Growth Inhibition in response to 25 µM of Drug
Method: as §1, §2, §3

[8] = test system: H460 lung carcinoma cells; assay: Cancer screening, MTT growth inhibition; assay type: cell-based; conditions: Homo sapiens, 72-h exposure; for inhibition at 25 µM: NCI-H460, 25 µM, read-out: H460 Lung Carcinoma, Percentage (%) Cell Growth Inhibition in response to 25 µM of Drug
Method: as §1, §2, §3

α-D-glucosidase (yeast) = target: T1, α-D-glucosidase (yeast) (Saccharomyces cerevisiae, UniProt P53341); assay: Glycosidase inhibition, Table 7; assay type: biochemical; conditions: 1 mg/mL aqueous solution added, 27 °C, run in water, read-out: α-D-Glucosidase Yeast, percentage inhibition
T1 construct: purchased Sigma
T1 sequence (P53341 whole entry): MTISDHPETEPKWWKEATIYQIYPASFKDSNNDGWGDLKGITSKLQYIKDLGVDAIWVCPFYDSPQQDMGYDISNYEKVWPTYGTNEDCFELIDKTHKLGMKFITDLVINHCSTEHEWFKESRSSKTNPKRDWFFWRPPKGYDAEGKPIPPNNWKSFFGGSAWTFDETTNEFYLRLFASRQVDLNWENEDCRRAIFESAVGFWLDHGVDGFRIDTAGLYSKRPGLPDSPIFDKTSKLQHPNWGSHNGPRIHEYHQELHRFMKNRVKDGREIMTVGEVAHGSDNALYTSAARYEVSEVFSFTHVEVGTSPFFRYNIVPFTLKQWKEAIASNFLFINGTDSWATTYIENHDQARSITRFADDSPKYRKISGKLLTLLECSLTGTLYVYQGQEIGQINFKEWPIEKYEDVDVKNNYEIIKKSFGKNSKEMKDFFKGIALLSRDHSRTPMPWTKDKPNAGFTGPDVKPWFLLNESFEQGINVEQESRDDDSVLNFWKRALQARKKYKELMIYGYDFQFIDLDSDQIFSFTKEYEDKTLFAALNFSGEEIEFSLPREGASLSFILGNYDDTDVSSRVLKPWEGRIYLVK
Method: (§4) All enzymes and para-nitrophenyl substrates were purchased from Sigma. Enzymes were assayed at 27 °C in citric acid (0.1M)/disodium hydrogen phosphate (0.2 M) buffers at the optimum pH for the enzyme. The incubation mixture consisted of […] enzyme solution, […] of 1 mg/mL aqueous solution of extract, and […] of the appropriate 5 mM para-nitrophenyl substrate made up in buffer at the optimum pH for the enzyme. The reactions were stopped by the addition of […] 0.4 M glycine (pH 10.4) during the exponential phase of the reaction, which had been determined at the beginning using uninhibited assays in which water replaced the inhibitor. Final absorbances were read at 405 nm using a Versamax microplate reader (Molecular Devices). Assays were carried out in triplicate, and the values given are the means of the three replicates per assay. All reactions run in water.

[9] = test system: β-D-glucuronidase (bovine liver); assay: Glycosidase inhibition, Table 7; assay type: biochemical; conditions: 1 mg/mL aqueous solution added, 27 °C, run in water
Method: as §4

β-D-glucosidase (almond) = assay: Glycosidase inhibition, Table 7; assay type: biochemical; conditions: 1 mg/mL aqueous solution added, 27 °C, run in water
Method: as §4

[10] = Appearance: 1 mL of water added to 1 mg of solid, and mixed; assay type: physicochemical
α-D-glucosidase (rice) = α-D-glucosidase (rice) (Oryza sativa subsp. japonica, UniProt Q653V7); assay: Glycosidase inhibition, Table 6 (Laboratory 1); assay type: biochemical
Chain of α-D-glucosidase (rice) (Q653V7 34-885): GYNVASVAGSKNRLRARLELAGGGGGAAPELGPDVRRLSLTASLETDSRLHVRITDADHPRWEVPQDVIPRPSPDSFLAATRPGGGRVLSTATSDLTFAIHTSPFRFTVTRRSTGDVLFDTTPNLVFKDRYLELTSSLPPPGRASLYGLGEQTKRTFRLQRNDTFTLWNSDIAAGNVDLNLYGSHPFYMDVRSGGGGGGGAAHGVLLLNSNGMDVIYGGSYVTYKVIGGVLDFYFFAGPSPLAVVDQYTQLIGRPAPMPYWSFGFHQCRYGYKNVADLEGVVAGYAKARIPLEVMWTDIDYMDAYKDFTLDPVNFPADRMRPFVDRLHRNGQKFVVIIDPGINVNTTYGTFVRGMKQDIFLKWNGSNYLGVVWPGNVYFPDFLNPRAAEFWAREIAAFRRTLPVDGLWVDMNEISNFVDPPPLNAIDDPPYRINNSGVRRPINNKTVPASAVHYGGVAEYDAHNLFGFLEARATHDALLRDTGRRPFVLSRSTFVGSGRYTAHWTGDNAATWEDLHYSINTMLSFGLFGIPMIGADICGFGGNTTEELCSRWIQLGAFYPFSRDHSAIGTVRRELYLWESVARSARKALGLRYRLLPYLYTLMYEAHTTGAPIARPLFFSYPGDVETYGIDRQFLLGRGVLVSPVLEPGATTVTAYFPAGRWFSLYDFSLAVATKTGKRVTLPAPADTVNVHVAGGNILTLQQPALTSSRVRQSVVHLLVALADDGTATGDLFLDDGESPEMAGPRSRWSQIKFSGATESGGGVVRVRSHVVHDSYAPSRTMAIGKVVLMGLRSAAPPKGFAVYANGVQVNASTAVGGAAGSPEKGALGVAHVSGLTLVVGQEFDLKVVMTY

| Compound | inhibition at 25 µM [1] | inhibition at 25 µM [2] | inhibition at 25 µM [3] | inhibition at 25 µM (U87 glioblastoma cells) | inhibition at 25 µM (SJ-G2 glioblastoma cells) | inhibition at 25 µM [4] | inhibition at 25 µM [5] | inhibition at 25 µM [6] | inhibition at 25 µM [7] | inhibition at 25 µM [8] | inhibition at 1000 µg/mL (stock) (α-D-glucosidase (yeast)) | β-D-Glucuronidase Bovine Liver, percentage inhibition [9] | β-D-Glucosidase Almond, percentage inhibition (β-D-glucosidase (almond)) | Appearance [10] | inhibition at 100 µM (α-D-glucosidase (rice)) | further results |
| --- | --- | --- | --- | --- | --- | --- | --- | --- | --- | --- | --- | --- | --- | --- | --- | --- |
| N[C@@H](Cc1ccc(B(O)O)cc1)C(=O)O [BPA, 4-borono-L-phenylalanine, reference compound] | 14% | 13% | 3% | < 0% | 5% | 4% | < 0% | 19% | 4% | 7% | 2.9% | −0.7% | 3.9% | Some in solution with undissolved sediment | – | – |
| CC1(C)O[C@H]2O[C@H]3[C@@H]([C@H]2O1)N(Cc1ccccc1)C[C@H]3O [Compound 3, N-Benzyl-3,6-dideoxy-3,6-imino-1,2-O-isopropylidene-α-D-gulofuranose] | 10% | 10% | 7% | 5% | 10% | 11% | 7% | < 0% | 7% | 9% | -89% | −0.2% | −8.3% | In solution | 0% | – |
| OC1O[C@@H]2[C@H]([C@H]1O)N(Cc1ccccc1)C[C@H]2O (stereo partly drawn) [Compound 4, N-Benzyl-3,6-dideoxy-3,6-imino-D-gulofuranose] | 11% | 12% | 8% | 8% | 12% | 15% | 9% | 0% | 11% | 8% | -79% | −4.3% | 58.1% | In solution | – | inhibition at 1000 µM (α-D-glucosidase (rice)): 1.3% |
| OC[C@H](O)[C@@H]1[C@H](O)[C@H](O)CN1Cc1ccccc1 [Compound 5, N-Benzyl-1,4-dideoxy-1,4-imino-L-gulitol] | 2 ± 3% | – | 6 ± 1% | – | – | 13 ± 6% | – | – | 2% | 0% | 5.5% | −2.2% | 17.1% | In solution | 0% | GI50 ([1]; HT-29, dose response, read-out: HT29 Colon Carcinoma, GI50 = Concentration (µM) that inhibits cell growth by 50%): > 50 µM; GI50 ([3]; MIA PaCa-2, dose response, read-out: MIA-Pa-Ca2 Pancreatic Carcinoma, GI50 = Concentration (µM) that inhibits cell growth by 50%): > 50 µM; GI50 ([4]; A2780, dose response, read-out: A2780 Ovarian Carcinoma, GI50 = Concentration (µM) that inhibits cell growth by 50%): > 50 µM; GI50 ([7]; A-431, dose response, read-out: A431 Skin Carcinoma, GI50 = Concentration (µM) that inhibits cell growth by 50%): > 50 µM; GI50 ([8]; NCI-H460, dose response, read-out: H460 Lung Carcinoma, GI50 = Concentration (µM) that inhibits cell growth by 50%): > 50 µM |
